From ChEMBL document CHEMBL5325396, “Discovery of Novel Acridane-Based Tubulin Polymerization Inhibitors with Anticancer and Potential Immunomodulatory Effects” (J Med Chem, 2023)

Legend:
B16-F10 [1] = test: Induction of cell cycle arrest in mouse B16-F10 cells assessed as accumulation at G2 phase at 10 nM incubated for 24 hrs by PI staining based flow cytometry (reference value: 23.04 %); assay type: functional
B16-F10 [2] = test: Induction of apoptosis in mouse B16-F10 cells assessed as early apoptotic cells at 25 nM incubated for 48 hrs by annexinV-FITC/PI staining based flow cytometry (reference value: 4.25 %); assay type: functional
B16-F10 [3] = test: Induction of apoptosis in mouse B16-F10 cells assessed as necrotic cells at 25 nM incubated for 48 hrs by annexinV-FITC/PI staining based flow cytometry (reference value: 0.064 %); assay type: functional
B16-F10 [4] = test: Induction of apoptosis in mouse B16-F10 cells assessed as late apoptotic cells at 25 nM incubated for 48 hrs by annexinV-FITC/PI staining based flow cytometry (reference value: 2.06 %); assay type: functional
B16-F10 [5] = test: Induction of cell cycle arrest in mouse B16-F10 cells assessed as accumulation at G2 phase at 50 nM incubated for 24 hrs by PI staining based flow cytometry (reference value: 23.04 %); assay type: functional
B16-F10 [6] = test: Inhibition of tubulin polymerization in mouse B16-F10 cells assessed as disruption of microtubule network incubated for 6 hrs by fluorescence microscopy; assay type: cell-based; conditions: dose 10-50 nM
[7] = Toxicity in C57 mouse allografted with mouse B16-F10 cells assessed as pathological damage in liver at 10 mg/kg, ip administered consecutively for 14 days by H and E staining based analysis; assay type: organism-based; conditions: in vivo, 336 h, time 14 day
B16-F10 [8] = test: Inhibition of cell migration in mouse B16-F10 cells assessed as wound area ratio at 10 nM incubated for 24 hrs by wound healing assay relative to control; assay type: functional
B16-F10 [9] = test: Induction of apoptosis in mouse B16-F10 cells assessed as late apoptotic cells at 10 nM incubated for 48 hrs by annexinV-FITC/PI staining based flow cytometry (reference value: 2.06 %); assay type: functional
B16-F10 [10] = test: Induction of cell cycle arrest in mouse B16-F10 cells assessed as accumulation at G1 phase at 10 nM incubated for 24 hrs by PI staining based flow cytometry (reference value: 52.77 %); assay type: functional
HepG2 = test: Antiproliferative activity against human HepG2 cells incubated for 48 hrs by MTT assay; assay type: functional, cell-based; conditions: HepG2, 48 h
B16-F10 [11] = test: Induction of cell cycle arrest in mouse B16-F10 cells assessed as accumulation at S phase at 10 nM incubated for 24 hrs by PI staining based flow cytometry (reference value: 21.79 %); assay type: functional
B16-F10 [12] = test: Induction of apoptosis in mouse B16-F10 cells assessed as necrotic cells at 10 nM incubated for 48 hrs by annexinV-FITC/PI staining based flow cytometry (reference value: 0.064 %); assay type: functional
B16-F10 [13] = test: Induction of apoptosis in mouse B16-F10 cells assessed as early apoptotic cells at 50 nM incubated for 48 hrs by annexinV-FITC/PI staining based flow cytometry (reference value: 4.25 %); assay type: functional
[14] = Toxicity in C57 mouse allografted with mouse B16-F10 cells assessed as body weight loss at 10 mg/kg, ip administered consecutively for 14 days; assay type: organism-based; conditions: in vivo, 336 h, time 14 day
B16-F10 [15] = test: Immunomodulatory activity in mouse B16-F10 cells allografted in C57 mouse assessed as decrease in PD-L1 level at 10 mg/kg, ip administered consecutively for 14 days in presence of NP-19 relative to control; assay type: functional; design: scale not given: the % may be the effect or the level left; conditions: time 14 day
B16-F10 [16] = test: Inhibition of cell migration in mouse B16-F10 cells assessed as wound area ratio at 25 nM incubated for 24 hrs by wound healing assay relative to control; assay type: functional
B16-F10 [17] = test: Induction of cell cycle arrest in mouse B16-F10 cells assessed as accumulation at G1 phase at 25 nM incubated for 24 hrs by PI staining based flow cytometry (reference value: 52.77 %); assay type: functional
B16-F10 [18] = test: Induction of apoptosis in mouse B16-F10 cells assessed as viable cells at 50 nM incubated for 48 hrs by annexinV-FITC/PI staining based flow cytometry (reference value: 93.6 %); assay type: functional; conditions: read-out: Activity
B16-F10 [19] = test: Inhibition of cell migration in mouse B16-F10 cells assessed as wound area ratio at 50 nM incubated for 24 hrs by wound healing assay relative to control; assay type: functional
[20] = Toxicity in C57 mouse allografted with mouse B16-F10 cells assessed as pathological damage in heart at 10 mg/kg, ip administered consecutively for 14 days by H and E staining based analysis; assay type: organism-based; conditions: in vivo, 336 h, time 14 day
B16-F10 [21] = test: Inhibition of cell migration in mouse B16-F10 cells assessed as wound area recovery upto 50 nM incubated for 24 hrs by wound healing assay relative to control; assay type: functional; design: scale not given: the % may be the effect or the level left; conditions: up to 50 nM
B16-F10 [22] = test: Induction of apoptosis in mouse B16-F10 cells assessed as early apoptotic cells at 10 nM incubated for 48 hrs by annexinV-FITC/PI staining based flow cytometry (reference value: 4.25 %); assay type: functional
B16-F10 [23] = test: Inhibition of colony formation in mouse B16-F10 cells at 50 uM incubated for 24 hrs and subsequent replacement of medium without compound measured after 10 to 14 days by crystal violet staining based assay relative to control; assay type: functional
B16-F10 [24] = test: Induction of apoptosis in mouse B16-F10 cells assessed as necrotic cells at 50 nM incubated for 48 hrs by annexinV-FITC/PI staining based flow cytometry (reference value: 0.064 %); assay type: functional
B16-F10 [25] = test: Antitumor activity against mouse B16-F10 cells allografted in C57 mouse assessed as tumor growth inhibition at 10 mg/kg, ip administered consecutively for 14 days in presence of NP-19; assay type: functional; conditions: B16-F10, 336 h, time 14 day, read-out: TGI
B16-F10 [26] = test: Immunomodulatory activity in mouse B16-F10 cells allografted in C57 mouse assessed as increase in CD3-positive CD4-positive cells at 10 mg/kg, ip administered consecutively for 14 days in presence of NP-19 (reference value: 8.35 %); assay type: functional; conditions: time 14 day
B16-F10 [27] = test: Antitumor activity against mouse B16-F10 cells allografted in C57 mouse assessed as tumor growth inhibition at 10 mg/kg, ip administered consecutively for 14 days; assay type: functional; conditions: B16-F10, 336 h, time 14 day, read-out: TGI
B16-F10 [28] = test: Inhibition of tubulin polymerization in mouse B16-F10 cells assessed as loss of cellular structure incubated for 6 hrs by fluorescence microscopy; assay type: cell-based; conditions: dose 10-50 nM
Tubulin = Tubulin (Sus scrofa, UniProt P02554+P02550); test: Inhibition of tubulin polymerization of pig brain microtubules by spectroscopic analysis; assay type: tissue-based
[29] = Toxicity in C57 mouse allografted with mouse B16-F10 cells assessed as body weight loss at 10 mg/kg, ip administered consecutively for 14 days in presence of NP-19; assay type: organism-based; conditions: in vivo, 336 h, time 14 day
B16-F10 [30] = test: Induction of cell cycle arrest in mouse B16-F10 cells assessed as accumulation at S phase at 25 nM incubated for 24 hrs by PI staining based flow cytometry (reference value: 21.79 %); assay type: functional
B16-F10 [31] = test: Immunomodulatory activity in mouse B16-F10 cells allografted in C57 mouse assessed as increase in CD3-positive CD8-positive cells at 10 mg/kg, ip administered consecutively for 14 days in presence of NP-19 (reference value: 6.66 %); assay type: functional; conditions: time 14 day
B16-F10 [32] = test: Immunomodulatory activity in mouse B16-F10 cells allografted in C57 mouse assessed as increase in CD3-positive CD4-positive cells at 10 mg/kg, ip administered consecutively for 14 days (reference value: 8.35 %); assay type: functional; conditions: time 14 day

Which Activity (B16-F10 [1]) does the source give for COc1ccc2c(c1F)Cc1ccccc1N2C(=O)c1cc(OC)c(OC)c(OC)c1 here?
The Activity was 24.07%.

What about the Activity (B16-F10 [2]) of the same compound?
Its Activity is 22.7%.

And the Activity (B16-F10 [3])?
The Activity was 0.268%.

What about the Activity (B16-F10 [4]) of the same compound?
The Activity was 6.63%.

And the Activity (B16-F10 [5])?
The Activity was 71.11%.

And the inhibition (B16-F10 [6])?
The inhibition was “Dose-Dependent Effect”.

What about the Activity [7] of the same compound?
The Activity was “Non-Toxic”.

What about the Ratio (B16-F10 [8]) of the same compound?
Its Ratio is 31.52%.

What about the Activity (B16-F10 [9]) of the same compound?
Its Activity is 3.17%.

And the Activity (B16-F10 [10])?
The Activity was 50.88%.

And the IC50 (HepG2)?
The IC50 was 41 nM.

What about the Activity (B16-F10 [11]) of the same compound?
Its Activity is 22.85%.

And the Activity (B16-F10 [12])?
The Activity was 0.133%.

What about the Activity (B16-F10 [13]) of the same compound?
Its Activity is 36.8%.

What about the Activity [14] of the same compound?
The Activity was “Non-Toxic”.

What about the Activity (B16-F10 [15]) of the same compound?
Its Activity is ~60%.

What about the Ratio (B16-F10 [16]) of the same compound?
The Ratio was 26.05%.

What about the Activity (B16-F10 [17]) of the same compound?
Its Activity is 16.55%.

What about the viability at 0.05 µM (B16-F10 [18]) of the same compound?
Its viability at 0.05 µM is 49.3%.

And the Ratio (B16-F10 [19])?
The Ratio was 7.2%.

What about the Activity [20] of the same compound?
The Activity was “Non-Toxic”.

And the Activity (B16-F10 [21])?
The Activity was 59.63%.

And the Activity (B16-F10 [22])?
The Activity was 5.7%.

What about the inhibition at 50 µM (B16-F10 [23]) of the same compound?
Its inhibition at 50 µM is ~100%.

What about the Activity (B16-F10 [24]) of the same compound?
The Activity was 0.61%.

What about the inhibition in vivo at 10 mg/kg (B16-F10 [25]) of the same compound?
The inhibition in vivo at 10 mg/kg was 77.6%.

What about the Activity (B16-F10 [26]) of the same compound?
The Activity was 26.3%.

What about the inhibition in vivo at 10 mg/kg (B16-F10 [27]) of the same compound?
Its inhibition in vivo at 10 mg/kg is 65.1%.

And the inhibition (B16-F10 [28])?
The inhibition was “Dose-Dependent Effect”.

And the IC50 (Tubulin)?
Its IC50 is 1500 nM.

What about the Activity [29] of the same compound?
Its Activity is “Non-Toxic”.

What about the Activity (B16-F10 [30]) of the same compound?
The Activity was 38.12%.

What about the Activity (B16-F10 [31]) of the same compound?
The Activity was 19.5%.

And the Activity (B16-F10 [32])?
Its Activity is 10.1%.
